For eight molecules, Activity results are on record in ChEMBL document CHEMBL1932970, “Facile synthesis of 1,2,3-triazole analogs of SGLT2 inhibitors by 'click chemistry'” (Bioorg Med Chem Lett, 2012).

Calls of active or inactive are those of the source. No cut-off for these calls is given here.

This test relates to Rattus norvegicus. The test is described as follows: Antidiabetic activity in fasted Sprague-Dawley rat assessed as increase in urinary glucose excretion at 30 mg/kg, po administered 0.5 hrs before glucose challenge measured after 24 hrs by UV spectrophotometric analysis relative to control. Type of test: functional, organism-based. On the set-up: dose 30 mg/kg. As to conditions: Urine.
Regarding `OC[C@H]1O[C@@H](Cc2cn(Cc3nc4ccccc4s3)nn2)[C@H](O)[C@@H](O)[C@@H]1O`, the result was Active.

Consider `OC[C@H]1O[C@@H](Cc2cn(Cc3ccc(-c4ccc(F)cc4)s3)nn2)[C@H](O)[C@@H](O)[C@@H]1O`, for which the outcome was Active.

For `CCOc1ccc(Cc2cc([C@@H]3O[C@H](CO)[C@@H](O)[C@H](O)[C@H]3O)ccc2Cl)cc1`, the result was Active.

As for `OC[C@H]1O[C@@H](Cc2cn(Cc3ccccc3)nn2)[C@H](O)[C@@H](O)[C@@H]1O`, the result was Active.

Turning to `Cc1ccc(Cn2cc(C[C@@H]3O[C@H](CO)[C@@H](O)[C@H](O)[C@H]3O)nn2)cc1`, the outcome was Active.

In the case of `OC[C@H]1O[C@@H](Cc2cn(Cc3ccccc3Cl)nn2)[C@H](O)[C@@H](O)[C@@H]1O`, the result was Active.

Take `OC[C@H]1O[C@@H](Cc2cn(Cc3cc4ccc(Cl)cc4s3)nn2)[C@H](O)[C@@H](O)[C@@H]1O`: the outcome was Active.

For `O=[N+]([O-])c1ccc(Cn2cc(C[C@@H]3O[C@H](CO)[C@@H](O)[C@H](O)[C@H]3O)nn2)cc1`, the outcome was Active.
